Laboratory results from US7803377B2, “Anti-DLL4 antibodies and methods using same” (Genentech, Inc., priority 2006, dated 2010).

Legend:
[1] = tested on: human melanoma MDA-MB-435; assay: Tumor model MDA-MB-435 (mammary fat pad); type: in vivo, mouse; details: treatment started 14 days post tumor cell injection
Description: (§1) Tumor models. Beige nude female mice of 8- to 10-week-old were used. To obtain subcutaneous tumors, mice were injected with 0.1 ml cell suspension containing 50% matrigel (BD Bioscience) into the right posterior flank. 5×10^6 human colon cancer HM7 cells, 10×10^6 human colon carcinoma Colo205 cells, 10×10^6 human lung carcinoma Calu6 cells, 10×10^6 human lung carcinoma MV-522 cells, 10×10^6 mouse leukemia WEHI-3 cells, 10×10^6 mouse lymphoma EL4 cells, 10×10^6 human ovarian cancer SK-OV-3 X1 cells, 10×06 mouse lung cancer LL2 cells, 10×10^6 leukemia/lymphoma EL4 cells, or 10×10^6 non-small lung cancer H1299 cells were injected into each mouse. For human melanoma MDA-MB-435 model, mice were injected into the mammary fat pad with 0.1 ml cell (5×10^6) suspension containing 50% matrigel. […] For the following tumor models, each test mouse received a subcutaneous tumor fragment (1 mm^3) implanted in the right flank: non-small lung cancer SKMES-1, human breast cancer MX-1, human colorectal cancer SW620 and human adenocarcinoma LS174T. The tumor growth was quantitated by caliper measurements. Tumor volume (mm^3) was determined by measuring the length (l) and width (w) and calculating the volume (V=lw2/2). 10 to 15 animals were included in each group. Statistical comparison of treatment groups was performed using two-tailed Student's t-test. […]

[2] = tested on: mouse leukemia WEHI-3 cells; assay: Tumor model WEHI3; type: in vivo; details: treatment initiated at ≧250 mm^3
Description: as §1

[3] = molecular target: Jag1 (Homo sapiens, UniProt P78504); assay: FACS analysis of transiently transfected 293 cells; type: binding; design: transiently transfected with vector, full length DLL4, Jag1 or DLL1; expressed in transfected cells; host or cells: 293 cells, transient; details: Jag1 transfected 293 cells; antibody 2 μg/ml
Text: (§2) Expression of Jag1 and DLL1 was confirmed by the binding of recombinant rat Notch1-Fc (rrNotch1-Fc, middle panel) and recombinant rat Notch2-Fc (rrNotch2-Fc, bottom panel), respectively.

[4] = molecular target: T1, DLL1 (Homo sapiens, UniProt O00548); assay: FACS analysis of transiently transfected 293 cells; type: binding; design: transiently transfected with vector, full length DLL4, Jag1 or DLL1; expressed in transfected cells; host or cells: 293 cells, transient; details: DLL1 transfected 293 cells; antibody 2 μg/ml
T1 sequence (O00548 18-723): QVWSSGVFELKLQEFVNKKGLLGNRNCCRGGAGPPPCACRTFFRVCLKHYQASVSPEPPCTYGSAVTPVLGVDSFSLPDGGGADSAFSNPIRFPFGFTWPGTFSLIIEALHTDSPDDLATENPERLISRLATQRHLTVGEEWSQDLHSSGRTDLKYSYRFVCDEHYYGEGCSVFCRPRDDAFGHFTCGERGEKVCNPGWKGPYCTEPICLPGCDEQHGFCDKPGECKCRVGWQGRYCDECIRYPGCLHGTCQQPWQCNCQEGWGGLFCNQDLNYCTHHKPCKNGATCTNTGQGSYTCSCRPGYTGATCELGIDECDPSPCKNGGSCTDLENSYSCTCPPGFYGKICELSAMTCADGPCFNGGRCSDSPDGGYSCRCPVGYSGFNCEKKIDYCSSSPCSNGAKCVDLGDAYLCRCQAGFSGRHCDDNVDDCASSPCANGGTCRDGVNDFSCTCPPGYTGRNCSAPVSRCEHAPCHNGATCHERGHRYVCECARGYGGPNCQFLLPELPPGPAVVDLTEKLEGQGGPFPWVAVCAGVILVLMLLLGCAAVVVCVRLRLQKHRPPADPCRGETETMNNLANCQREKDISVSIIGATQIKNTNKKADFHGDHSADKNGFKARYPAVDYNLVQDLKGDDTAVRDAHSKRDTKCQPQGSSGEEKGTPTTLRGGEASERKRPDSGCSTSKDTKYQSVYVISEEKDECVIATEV
Text: as §2

[5] = tested on: non-small lung cancer SKMES-1; assay: Tumor model SKMES-1; type: in vivo, mouse; details: 5 mg/kg, IP, twice weekly after establishment of the tumors
Description: as §1

[6] = tested on: human colon cancer HM7 cells; assay: Tumor model HM7; type: in vivo, mouse; details: treatment initiated at ≧250 mm^3; 10 mg/kg i.p. twice weekly; two weeks of treatment
Description: as §1

[7] = tested on: human lung carcinoma MV-522 cells; assay: Tumor model MV-522; type: in vivo, mouse; details: treatment initiated at ≧250 mm^3
Description: as §1

[8] = tested on: human breast cancer MX-1; assay: Tumor model MX-1; type: in vivo, mouse; details: 5 mg/kg, IP, twice weekly after establishment of the tumors
Description: as §1

[9] = molecular target: T2, full length DLL4 (Homo sapiens, UniProt Q9NR61); assay: FACS analysis of transiently transfected 293 cells; type: binding; details: DLL4 transfected 293 cells; antibody 2 μg/ml
T2 construct: transiently transfected with vector, full length DLL4, Jag1 or DLL1; expressed in transfected cells; host or cells: 293 cells, transient

[10] = tested on: human adenocarcinoma LS174T; assay: Tumor model LS174T; type: in vivo, mouse; details: 5 mg/kg, IP, twice weekly after establishment of the tumors
Description: as §1

[11] = tested on: SK-OV-3X1, LL2, EL4, H11299, SKMES-1, MX-1, SW620 and LS174T models; assay: Tumor models, combination of YW26.82 with anti-VEGF where tested; type: in vivo, mouse; details: YW26.82 5 mg/kg and anti-VEGF 5 mg/kg, IP, twice weekly; models where the combination was tested
Description: as §1

[12] = molecular target: DLL4 (Homo sapiens, UniProt Q9NR61); assay: Notch ligand: Notch blocking ELISA (DLL4-AP / DLL4-His binding to coated rNotch1); design: amino acid 1-404 of DLL4 fused to human placenta alkaline phosphatase; made in house; host or cells: 293 cells, conditioned medium (DLL4-AP); details: purified DLL4-His, read-out: calculated IC50, blocking the binding of DLL4-His to coated rNotch1
Description: Conditioned medium containing DLL4-AP (amino acid 1-404 of DLL4 fused to human placenta alkaline phosphatase) was used in the assay. To prepare conditioned medium, 293 cells were transiently transfected with plasmid expressing DLL4-AP with Fugen6 reagent (Roche Molecular Biochemicals). Five days posttransfection, the conditioned medium was harvested, filtered and stored at 4° C. Purified antibodies titrated from 0.15 to 25 μg/ml were preincubated for 1 hr at room temperature with DLL4-AP conditioned medium at a dilution that conferred 50% maximally achievable binding to coated rrNotch1-Fc. The antibody/DLL4-AP mixture was then added to rrNotch1-Fc coated plate for 1 hr at room temperature, after which plates were washed several times in PBS. The bound DLL4-AP was detected using 1-Step PNPP (Pierce) as substrate and OD 405 nm absorbance measurement. […] The bound His-tagged ligands was detected with mouse anti-His mAb (1 μg/ml, Roche Molecular Biochemicals), biotinylated goat-anti-mouse (Jackson ImmunoResearch) and Streptavidin-AP (Jackson ImmunoResearch).

## YW26.82: affinity matured anti-DLL4 monoclonal antibody; HVR-H1/H2/H3 SEQ ID NO:1, 8, 9; HVR-L1/L2/L3 SEQ ID NO:10, 11, 18
[1]
  tumor growth: inhibited tumors growing in mouse mammary fat pads
[2]
  tumor growth, single agent: significant inhibition of tumor growth
[3]
  binding by FACS: Significant binding was not detected
[4]
  binding by FACS: Significant binding was not detected
[5]
  tumor growth, single agent: inhibited tumor growth alone
[6]
  tumor volume: remained static
[7]
  tumor growth, single agent: inhibited tumor growth
[7]; combination with anti-VEGF
  tumor growth, combination of YW26.82 and anti-VEGF: most effective
[8]
  tumor growth, single agent: inhibited tumor growth alone
[9]
  binding by FACS: significant binding
[10]
  tumor growth, single agent: inhibited tumor growth alone
[11]
  efficacy in combination with anti-VEGF: enhanced efficacy
[12]
  IC50: ~8 nM
